Data published in ChEMBL document CHEMBL5705903, “A DNA Hypomethylation Signature Predicts Antitumor Activity of LSD1 Inhibitors in SCLC” (Cancer Cell, 2015).
pIC50, pKi: −log10 of the molar value. Active and inactive are the calls of the source. The calls are words filed in the database; no cut-off is given here.

What was measured:
[1] = molecular target: D-amino-acid oxidase (Homo sapiens, UniProt P14920); experiment: Binding affinity to D-amino acid oxidase (unknown origin) assessed as apparent inhibition constant; details: read-out: Ki(app)
[2] = molecular target: Amine oxidase [flavin-containing] B (Homo sapiens, UniProt P27338); experiment: Inhibition of MAO-B (unknown origin)
[3] = Cmax in mouse blood at 5 mg/kg, po by HPLC/MS/MS analysis; assay type: ADME, organism-based
[4] = Half life in mouse tumor at 5 mg/kg, po by HPLC/MS/MS analysis; assay type: ADME, organism-based, Neoplasm
[5] = Toxicity in mouse xenografted with human NCI-H526 cells assessed as drug tolerance at 1.5 mg/kg, po administered daily measured for 30 days; assay type: organism-based; details: in vivo, 720 h, time 30 day
[6] = Effect on cleaved PARP level in human NCI-H1417 cells assessed as relative expression at 1000 nM measured after 14 days by Western blot analysis (reference value: 0.38); assay type: functional; details: time 14 day
[7] = Effect on cleaved PARP level in human NCI-H526 cells assessed as relative expression at 100 nM measured after 10 days by Western blot analysis (reference value: 0.81); assay type: functional; details: time 10 day
[8] = Effect on cleaved PARP level in human NCI-H526 cells assessed as fold change at 1000 nM measured after 7 days by Western blot analysis (reference value: 1.00); assay type: functional; details: time 7 day
[9] = Effect on cleaved PARP level in human NCI-H524 cells assessed as relative expression at 10 nM measured after 7 days by Western blot analysis (reference value: 0.63); assay type: functional; details: time 7 day
[10] = Effect on cleaved PARP level in human NCI-H524 cells assessed as relative expression at 10 nM measured after 14 days by Western blot analysis (reference value: […]); assay type: functional; details: time 14 day
[11] = Effect on cleaved PARP level in human NCI-H524 cells assessed as fold change at 100 nM measured after 7 days by Western blot analysis (reference value: 1.00); assay type: functional; details: time 7 day
[12] = Effect on cleaved PARP level in human COLO-668 cells assessed as relative expression at 10 nM measured after 10 days by Western blot analysis (reference value: 1.07); assay type: functional; details: time 10 day
[13] = Effect on cleaved PARP level in human COLO-668 cells assessed as relative expression at 1000 nM measured after 14 days by Western blot analysis (reference value: 3.50); assay type: functional; details: time 14 day
[14] = Effect on cleaved PARP level in human COLO-668 cells assessed as fold change at 100 nM measured after 14 days by Western blot analysis (reference value: 1.00); assay type: functional; details: time 14 day
[15] = Effect on cleaved PARP level in human NCI-H1694 cells assessed as relative expression at 10 nM measured after 14 days by Western blot analysis (reference value: 0.25); assay type: functional; details: time 14 day
[16] = Effect on cleaved PARP level in human NCI-H1694 cells assessed as relative expression at 1000 nM measured after 14 days by Western blot analysis (reference value: 0.25); assay type: functional; details: time 14 day
[17] = Effect on cleaved PARP level in human NCI-H1694 cells assessed as fold change at 100 nM measured after 10 days by Western blot analysis (reference value: 1.00); assay type: functional; details: time 10 day
[18] = Effect on cleaved PARP level in human NCI-H69 cells assessed as fold change at 10 nM measured after 7 days by Western blot analysis (reference value: 1.00); assay type: functional; details: time 7 day
[19] = Effect on cleaved PARP level in human NCI-H69 cells assessed as fold change at 100 nM measured after 10 days by Western blot analysis (reference value: 1.00); assay type: functional; details: time 10 day
[20] = Effect on cleaved PARP level in human NCI-H510 cells assessed as relative expression at 100 nM measured after 14 days by Western blot analysis (reference value: 0.01); assay type: functional, NCI-H510A; details: time 14 day
[21] = Effect on cleaved PARP level in human NCI-H889 cells assessed as relative expression at 100 nM measured after 10 days by Western blot analysis (reference value: 0.33); assay type: functional; details: time 10 day
[22] = Effect on cleaved PARP level in human NCI-H889 cells assessed as fold change at 100 nM measured after 7 days by Western blot analysis (reference value: 1.00); assay type: functional; details: time 7 day
[23] = Effect on cleaved PARP level in human NCI-H889 cells assessed as fold change at 10 nM measured after 10 days by Western blot analysis (reference value: 1.00); assay type: functional; details: time 10 day
[24] = Effect on cleaved PARP level in human NCI-H889 cells assessed as fold change at 1000 nM measured after 10 days by Western blot analysis (reference value: 1.00); assay type: functional; details: time 10 day
[25] = Effect on cleaved PARP level in human NCI-H2171 cells assessed as relative expression at 100 nM measured after 10 days by Western blot analysis (reference value: 0.02); assay type: functional; details: time 10 day
[26] = Effect on cleaved PARP level in human NCI-H2171 cells assessed as fold change at 10 nM measured after 10 days by Western blot analysis (reference value: 1.00); assay type: functional; details: time 10 day
[27] = Effect on cleaved PARP level in human NCI-H146 cells assessed as fold change at 1000 nM measured after 7 days by Western blot analysis (reference value: 1.00); assay type: functional; details: time 7 day
[28] = Toxicity in rat assessed as thrombocytopenia measured for 28 days; details: in vivo, 672 h, time 28 day
[29] = Toxicity in rat assessed as multifocal hemorrhage in organs measured for 28 days; details: in vivo, 672 h, time 28 day
[30] = Toxicity in dog assessed as effect on hemodynamics measured for 28 days; parameters: species or system Canis lupus familiaris; details: in vivo, 672 h, time 28 day
[31] = Toxicity in dog assessed as effect on ECG measured for 28 days; parameters: species or system Canis lupus familiaris; details: in vivo, 672 h, time 28 day
[32] = test system: NCI-H69; experiment: Antitumor activity against human NCI-H69 cells xenografted in nude mouse assessed as mean tumor volume at 1.5 mg/kg, po administered daily measured twice weekly (reference value: 1063 +/- 161 mm3); assay type: functional
[33] = test system: NCI-H446; experiment: Effect on NCAM gene expression in human NCI-H446 cells at 1 uM measured after 4 days by qRT-PCR analysis; assay type: functional, cell-based; details: time 4.0 day
[34] = test system: NCI-H446; experiment: Effect on SYP gene expression in human NCI-H446 cells at 1 uM measured after 4 days by qRT-PCR analysis; assay type: functional, cell-based; details: time 4.0 day
[35] = test system: SHP77; experiment: Effect on SYP gene expression in human SHP77 cells at 1 uM measured after 4 days by qRT-PCR analysis; assay type: functional, cell-based; details: time 4.0 day
[36] = test system: NCI-H526; experiment: Effect on genomic redistribution of LSD1 to new sites in human NCI-H526 cells at 1 uM; assay type: functional, cell-based
[37] = test system: NCI-H526; experiment: In vivo inhibition of LSD1 in human NCI-H526 cells xenografted in nude mouse assessed as change in FEZ1 gene expression administrated daily for 5 days by qRT-PCR analysis; assay type: functional, organism-based; details: dose 0.02-135 mg/kg, time 5.0 day
[38] = Antitumor activity against human PDX L48 cells xenografted in mouse assessed as tumor growth inhibition at 1.5 mg/kg administered daily measured for 16 days relative to control; assay type: functional; details: PDX LX48, 384 h, time 16 day, read-out: TGI

D-amino-acid oxidase, sequence (P14920 whole entry): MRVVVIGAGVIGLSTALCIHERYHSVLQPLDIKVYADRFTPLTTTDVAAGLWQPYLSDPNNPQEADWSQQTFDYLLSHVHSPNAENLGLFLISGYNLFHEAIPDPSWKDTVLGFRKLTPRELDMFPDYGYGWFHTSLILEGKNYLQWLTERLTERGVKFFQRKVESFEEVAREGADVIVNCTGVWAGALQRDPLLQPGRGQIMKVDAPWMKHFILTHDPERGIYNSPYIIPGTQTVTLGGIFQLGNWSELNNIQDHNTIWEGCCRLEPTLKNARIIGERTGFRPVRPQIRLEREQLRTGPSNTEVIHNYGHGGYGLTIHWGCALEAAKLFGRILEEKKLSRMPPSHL
Amine oxidase [flavin-containing] B, sequence (P27338 whole entry): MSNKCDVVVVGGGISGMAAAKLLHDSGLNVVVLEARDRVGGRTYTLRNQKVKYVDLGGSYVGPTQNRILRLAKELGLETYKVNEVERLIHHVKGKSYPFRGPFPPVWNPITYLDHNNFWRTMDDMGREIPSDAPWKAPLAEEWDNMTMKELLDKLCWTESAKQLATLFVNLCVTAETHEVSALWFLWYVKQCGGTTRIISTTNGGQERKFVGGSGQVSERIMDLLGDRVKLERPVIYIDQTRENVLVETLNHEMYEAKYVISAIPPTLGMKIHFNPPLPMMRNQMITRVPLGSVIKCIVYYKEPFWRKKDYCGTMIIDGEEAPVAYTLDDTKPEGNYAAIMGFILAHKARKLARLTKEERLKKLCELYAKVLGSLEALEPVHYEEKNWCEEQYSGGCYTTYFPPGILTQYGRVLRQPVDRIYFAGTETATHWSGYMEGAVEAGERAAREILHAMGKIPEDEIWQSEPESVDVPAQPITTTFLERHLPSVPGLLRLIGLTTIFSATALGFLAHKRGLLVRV

**Q.** With `O=C(O)c1ccc(CN2CCC(CN[C@@H]3C[C@H]3c3ccccc3)CC2)cc1` [GSK2879552] as the compound, how does the pKi [1] read?
**A.** 3.28

**Q.** And the pIC50 [2]?
**A.** 4.70

**Q.** And the Cmax [3]?
**A.** 720 ng/mL

**Q.** And the half-life [4]?
**A.** 504 min

**Q.** And the Activity [5]?
**A.** Non-Toxic

**Q.** And the Activity [6]?
**A.** 0.42

**Q.** What about the Activity [7] of the same compound?
**A.** 0.94

**Q.** And the “fold change (FC)” value [8]?
**A.** 1.3

**Q.** And the Activity [9]?
**A.** 0.62

**Q.** And the Activity [10]?
**A.** 1.2

**Q.** And the “fold change (FC)” value [11]?
**A.** 0.95

**Q.** And the Activity [12]?
**A.** 0.81

**Q.** And the Activity [13]?
**A.** 1.02

**Q.** What about the “fold change (FC)” value [14] of the same compound?
**A.** 0.25

**Q.** And the Activity [15]?
**A.** 0.22

**Q.** And the Activity [16]?
**A.** 0.21

**Q.** What about the “fold change (FC)” value [17] of the same compound?
**A.** 0.75

**Q.** And the “fold change (FC)” value [18]?
**A.** 1.26

**Q.** And the “fold change (FC)” value [19]?
**A.** 1.62

**Q.** What about the Activity [20] of the same compound?
**A.** 0.52

**Q.** And the Activity [21]?
**A.** 0.74

**Q.** What about the “fold change (FC)” value [22] of the same compound?
**A.** 1.25

**Q.** What about the “fold change (FC)” value [23] of the same compound?
**A.** 1.68

**Q.** And the “fold change (FC)” value [24]?
**A.** 2.77

**Q.** What about the Activity [25] of the same compound?
**A.** 0.02

**Q.** And the “fold change (FC)” value [26]?
**A.** 1.33

**Q.** What about the “fold change (FC)” value [27] of the same compound?
**A.** 1.12

**Q.** What about the Activity [28] of the same compound?
**A.** Toxic

**Q.** And the Activity [29]?
**A.** Toxic

**Q.** What about the Activity [30] of the same compound?
**A.** Toxic

**Q.** And the Activity [31]?
**A.** Toxic

**Q.** What about the Activity [32] of the same compound?
**A.** 610 mm3

**Q.** And the Activity [33]?
**A.** inactive

**Q.** What about the Activity [34] of the same compound?
**A.** inactive

**Q.** What about the Activity [35] of the same compound?
**A.** inactive

**Q.** What about the Activity [36] of the same compound?
**A.** inactive

**Q.** And the inhibition [37]?
**A.** Dose-Dependent Effect

**Q.** And the inhibition in vivo at 1.5 mg/kg [38]?
**A.** 74%
